Test results: PubChem BioAssay (NCI)
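48-hour exposure; five concentrations; linearly interpolated endpoints. At the TGI there is no net growth.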

How the values were obtained:
Assay in all cases: NCI-60 cell line screen, 48 h
M14 melanoma = system: M14 melanoma
NCI/ADR-RES ovarian = system: NCI/ADR-RES ovarian
UO-31 renal = system: UO-31 renal
TK-10 renal = system: TK-10 renal
RPMI-8226 leukemia = system: RPMI-8226 leukemia
MOLT-4 leukemia = system: MOLT-4 leukemia
UACC-257 melanoma = system: UACC-257 melanoma
MCF7 breast = system: MCF7 breast
HCT-116 colon = system: HCT-116 colon
PC-3 prostate = system: PC-3 prostate
DU-145 prostate = system: DU-145 prostate
SR leukemia = system: SR leukemia
ACHN renal = system: ACHN renal
CCRF-CEM leukemia = system: CCRF-CEM leukemia
SF-539 CNS = system: SF-539 CNS
HCT-15 colon = system: HCT-15 colon
LOX IMVI melanoma = system: LOX IMVI melanoma
HOP-92 NSCLC = system: HOP-92 NSCLC
IGROV1 ovarian = system: IGROV1 ovarian
HL-60(TB) leukemia = system: HL-60(TB) leukemia
HT29 colon = system: HT29 colon
NCI-H23 lung = system: NCI-H23 lung
OVCAR-5 ovarian = system: OVCAR-5 ovarian
SK-MEL-28 melanoma = system: SK-MEL-28 melanoma
A498 renal = system: A498 renal
SNB-19 CNS = system: SNB-19 CNS
T-47D breast = system: T-47D breast
HOP-62 NSCLC = system: HOP-62 NSCLC
HS 578T breast = system: HS 578T breast
MDA-MB-231 breast = system: MDA-MB-231 breast
SK-MEL-5 melanoma = system: SK-MEL-5 melanoma
786-0 renal = system: 786-0 renal
SK-OV-3 ovarian = system: SK-OV-3 ovarian
OVCAR-8 ovarian = system: OVCAR-8 ovarian
SF-295 CNS = system: SF-295 CNS
MDA-MB-435 = system: MDA-MB-435
BT-549 breast = system: BT-549 breast
MALME-3M melanoma = system: MALME-3M melanoma
EKVX NSCLC = system: EKVX NSCLC
CAKI-1 renal = system: CAKI-1 renal
A549 NSCLC = system: A549 NSCLC
U251 CNS = system: U251 CNS
SN12C renal = system: SN12C renal
COLO 205 colon = system: COLO 205 colon
SF-268 CNS = system: SF-268 CNS
SW-620 colon = system: SW-620 colon
HCC-2998 colon = system: HCC-2998 colon
OVCAR-3 ovarian = system: OVCAR-3 ovarian
MDA-N = system: MDA-N
NCI-H460 lung = system: NCI-H460 lung
KM12 colon = system: KM12 colon
SNB-75 CNS = system: SNB-75 CNS
RXF 393 renal = system: RXF 393 renal
UACC-62 melanoma = system: UACC-62 melanoma
OVCAR-4 ovarian = system: OVCAR-4 ovarian
SK-MEL-2 melanoma = system: SK-MEL-2 melanoma
NCI-H522 lung = system: NCI-H522 lung
NCI-H226 lung = system: NCI-H226 lung

Structure (SMILES): S=C1N(c2ccc(Cl)cc2)C2=C(N=Nc3ccccc3)C(=Nc3ccccc3S2)N1c1ccccn1
- TGI (M14 melanoma): 26.6 µM
- TGI (NCI/ADR-RES ovarian): 33.4 µM
- TGI (UO-31 renal): 21.7 µM
- TGI (TK-10 renal): 28 µM
- TGI (RPMI-8226 leukemia): 43.6 µM
- TGI (MOLT-4 leukemia): 31.7 µM
- TGI (UACC-257 melanoma): 30.4 µM
- TGI (MCF7 breast): 15.2 µM
- TGI (HCT-116 colon): 27.1 µM
- TGI (PC-3 prostate): 27.6 µM
- TGI (DU-145 prostate): 27.8 µM
- TGI (SR leukemia): 29.2 µM
- TGI (ACHN renal): 27.5 µM
- TGI (CCRF-CEM leukemia): 22.9 µM
- TGI (SF-539 CNS): 30.4 µM
- TGI (HCT-15 colon): 23 µM
- TGI (LOX IMVI melanoma): 24.4 µM
- TGI (HOP-92 NSCLC): 49.6 µM
- TGI (IGROV1 ovarian): 1470 nM
- TGI (HL-60(TB) leukemia): 28.1 µM
- TGI (HT29 colon): 35.6 µM
- TGI (NCI-H23 lung): 37.4 µM
- TGI (OVCAR-5 ovarian): 35.1 µM
- TGI (SK-MEL-28 melanoma): 29.4 µM
- TGI (A498 renal): 17.2 µM
- TGI (SNB-19 CNS): 28.3 µM
- TGI (T-47D breast): 899 nM
- TGI (HOP-62 NSCLC): 33.7 µM
- TGI (HS 578T breast): 32.7 µM
- TGI (MDA-MB-231 breast): 25.4 µM
- TGI (SK-MEL-5 melanoma): 23.4 µM
- TGI (786-0 renal): 28.1 µM
- TGI (SK-OV-3 ovarian): 31.6 µM
- TGI (OVCAR-8 ovarian): 28.2 µM
- TGI (SF-295 CNS): 32.3 µM
- TGI (MDA-MB-435): 26.7 µM
- TGI (BT-549 breast): 23.1 µM
- TGI (MALME-3M melanoma): 19.8 µM
- TGI (EKVX NSCLC): 26.6 µM
- TGI (CAKI-1 renal): 26.7 µM
- TGI (A549 NSCLC): 29.1 µM
- TGI (U251 CNS): 23.7 µM
- TGI (SN12C renal): 25 µM
- TGI (COLO 205 colon): 25.2 µM
- TGI (SF-268 CNS): 19.6 µM
- TGI (SW-620 colon): 34.9 µM
- TGI (HCC-2998 colon): 35.7 µM
- TGI (OVCAR-3 ovarian): 27.2 µM
- TGI (MDA-N): 30.1 µM
- TGI (NCI-H460 lung): 25.7 µM
- TGI (KM12 colon): 23.8 µM
- TGI (SNB-75 CNS): 49.2 µM

Structure (SMILES): O=C1N=C(c2ccccc2)O/C1=C\c1ccccc1
- TGI (M14 melanoma): > 100 µM
- TGI (NCI/ADR-RES ovarian): > 100 µM
- TGI (UO-31 renal): > 100 µM
- TGI (TK-10 renal): > 100 µM
- TGI (RPMI-8226 leukemia): > 100 µM
- TGI (MOLT-4 leukemia): > 100 µM
- TGI (UACC-257 melanoma): > 100 µM
- TGI (MCF7 breast): > 100 µM
- TGI (HCT-116 colon): > 100 µM
- TGI (PC-3 prostate): > 100 µM
- TGI (DU-145 prostate): > 100 µM
- TGI (SR leukemia): > 100 µM
- TGI (ACHN renal): > 100 µM
- TGI (SF-539 CNS): > 100 µM
- TGI (HCT-15 colon): > 100 µM
- TGI (LOX IMVI melanoma): > 100 µM
- TGI (HOP-92 NSCLC): > 100 µM
- TGI (IGROV1 ovarian): > 100000 nM
- TGI (HL-60(TB) leukemia): > 100 µM
- TGI (HT29 colon): > 100 µM
- TGI (NCI-H23 lung): > 100 µM
- TGI (OVCAR-5 ovarian): > 100 µM
- TGI (SK-MEL-28 melanoma): > 100 µM
- TGI (A498 renal): > 100 µM
- TGI (SNB-19 CNS): > 100 µM
- TGI (RXF 393 renal): > 100 µM
- TGI (UACC-62 melanoma): > 100 µM
- TGI (T-47D breast): > 100000 nM
- TGI (HOP-62 NSCLC): > 100 µM
- TGI (HS 578T breast): > 100 µM
- TGI (MDA-MB-231 breast): > 100 µM
- TGI (SK-MEL-5 melanoma): > 100 µM
- TGI (786-0 renal): > 100 µM
- TGI (SK-OV-3 ovarian): > 100 µM
- TGI (OVCAR-4 ovarian): > 100 µM
- TGI (OVCAR-8 ovarian): > 100 µM
- TGI (SF-295 CNS): > 100 µM
- TGI (MDA-MB-435): > 100 µM
- TGI (BT-549 breast): > 100 µM
- TGI (MALME-3M melanoma): > 100 µM
- TGI (CAKI-1 renal): > 100 µM
- TGI (SK-MEL-2 melanoma): > 100 µM
- TGI (NCI-H522 lung): > 100 µM
- TGI (NCI-H226 lung): > 100 µM
- TGI (A549 NSCLC): > 100 µM
- TGI (U251 CNS): > 100 µM
- TGI (SN12C renal): > 100 µM
- TGI (COLO 205 colon): > 100 µM
- TGI (SF-268 CNS): > 100 µM
- TGI (SW-620 colon): > 100 µM
- TGI (HCC-2998 colon): > 100 µM
- TGI (OVCAR-3 ovarian): > 100 µM
- TGI (MDA-N): > 100 µM
- TGI (NCI-H460 lung): > 100 µM
- TGI (KM12 colon): > 100 µM
- TGI (SNB-75 CNS): > 100 µM
